{"source": "paper PMC6017733", "about": "“Identification of Bichalcones as Sirtuin Inhibitors by Virtual Screening and In Vitro Testing” (Molecules : A Journal of Synthetic Chemistry and Natural …, 2018)", "assay_type_in_all_cases": "biochemical", "key": {"sirt3": {"biological_target": "T1, sirt3 (Homo sapiens, UniProt Q9NTG7)", "T1 construct": "sirt3_118–395 (His6-tagged)", "T1 sequence (Q9NTG7 118-395)": "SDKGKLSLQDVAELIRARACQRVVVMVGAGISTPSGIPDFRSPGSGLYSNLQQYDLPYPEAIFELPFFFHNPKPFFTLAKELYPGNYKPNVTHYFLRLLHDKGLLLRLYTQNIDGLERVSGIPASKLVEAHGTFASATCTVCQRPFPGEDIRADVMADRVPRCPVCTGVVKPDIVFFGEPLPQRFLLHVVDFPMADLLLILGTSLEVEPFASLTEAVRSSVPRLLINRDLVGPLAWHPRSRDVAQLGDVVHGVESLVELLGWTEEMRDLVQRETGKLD", "assay": "fluorescent deacetylase assay, % inhibition at […]", "details": "read-out: Sirt 3 (μM or % Inhibition)"}, "sirt1": {"biological_target": "T2, sirt1 (Homo sapiens, UniProt Q96EB6)", "T2 construct": "sirt1_133–747 (GST-tagged)", "T2 sequence (Q96EB6 133-747)": "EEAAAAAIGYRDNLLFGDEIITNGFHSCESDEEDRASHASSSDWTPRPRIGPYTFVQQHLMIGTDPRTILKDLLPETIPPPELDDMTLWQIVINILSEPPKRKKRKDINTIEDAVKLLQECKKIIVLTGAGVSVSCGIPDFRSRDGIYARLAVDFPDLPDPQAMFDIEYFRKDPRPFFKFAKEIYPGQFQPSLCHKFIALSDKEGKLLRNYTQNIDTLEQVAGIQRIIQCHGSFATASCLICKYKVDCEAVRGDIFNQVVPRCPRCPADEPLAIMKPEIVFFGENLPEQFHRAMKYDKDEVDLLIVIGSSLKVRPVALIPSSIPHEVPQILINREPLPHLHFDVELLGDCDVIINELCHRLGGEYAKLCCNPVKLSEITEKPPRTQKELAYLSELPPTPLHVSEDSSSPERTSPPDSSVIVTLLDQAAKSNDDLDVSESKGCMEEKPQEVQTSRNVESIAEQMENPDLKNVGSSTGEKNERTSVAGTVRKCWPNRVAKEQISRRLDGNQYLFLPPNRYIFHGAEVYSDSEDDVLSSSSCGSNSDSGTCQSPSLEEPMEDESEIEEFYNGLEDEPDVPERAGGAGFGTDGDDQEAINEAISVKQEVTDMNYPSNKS", "assay": "fluorescent deacetylase assay (ZMAL substrate, trypsin-coupled)"}, "sirt2": {"biological_target": "T3, sirt2 (Homo sapiens, UniProt Q8IXJ6)", "T3 sequence (Q8IXJ6 56-356)": "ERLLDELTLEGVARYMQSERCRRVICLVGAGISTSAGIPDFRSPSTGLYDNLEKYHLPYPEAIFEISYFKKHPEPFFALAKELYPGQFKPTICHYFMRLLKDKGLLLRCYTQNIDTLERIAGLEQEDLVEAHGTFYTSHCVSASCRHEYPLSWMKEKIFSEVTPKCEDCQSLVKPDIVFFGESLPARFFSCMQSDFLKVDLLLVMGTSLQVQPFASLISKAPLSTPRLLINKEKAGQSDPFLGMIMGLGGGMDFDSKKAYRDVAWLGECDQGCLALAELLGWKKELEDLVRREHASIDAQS", "assay": "fluorescent deacetylase assay (ZMAL substrate, trypsin-coupled)"}}}
{"smiles": "COc1cc(O)c(C(=O)/C=C/c2ccc(O)cc2)cc1Oc1ccc(C(=O)/C=C/c2ccc(O)cc2)c(O)c1", "note": "[compound 8, rhuschalcone IV]", "values": [{"measurement": "inhibition at 50 µM", "setting": "sirt3", "value": 38, "unit": "%"}, {"measurement": "IC50", "setting": "sirt1", "value": "46.7 ± 6", "unit": "µM"}, {"measurement": "IC50", "setting": "sirt2", "value": "48.5 ± 39.5", "unit": "µM"}]}
{"smiles": "COc1cc(O)c(C(=O)/C=C/c2ccc(O)cc2)cc1Oc1ccc(C(=O)/C=C/c2ccc(O)cc2O)c(O)c1", "note": "[compound 9, rhuschalcone I analogue]", "values": [{"measurement": "IC50", "setting": "sirt1", "value": "40.8 ± 8.5", "unit": "µM"}, {"measurement": "IC50", "setting": "sirt2", "value": "44.8 ± 5.1", "unit": "µM"}]}
